# In US11052092B2, “N-{[2-(piperidin-1-yl)phenyl](phenyl)methyl}-2-(3-oxo-3,4-dihydro-2H-1,4-benzoxazin-7-yl)acetamide derivatives and related compounds as ROR-gamma modulators for treating autoimmune diseases” (Genfit, priority 2017, dated 2021):
# Assays:
# [1] = molecular target: T1, human RORγt (Homo sapiens, UniProt P51449); assay: RORE Luciferase/RORγt transactivation assay; assay type: cell-based; conditions: COS-7 cells transfected with human IL-17 promoter luciferase reporter and RORγt plasmid; 20 h with compound; read-out: IC50, RORγt activity inhibition
# T1 construct: the full-length cDNA of human RORγt; expressed in transfected cells; host or cells: COS-7 (monkey kidney)
# T1 sequence (P51449 1-497 isoform P51449-2): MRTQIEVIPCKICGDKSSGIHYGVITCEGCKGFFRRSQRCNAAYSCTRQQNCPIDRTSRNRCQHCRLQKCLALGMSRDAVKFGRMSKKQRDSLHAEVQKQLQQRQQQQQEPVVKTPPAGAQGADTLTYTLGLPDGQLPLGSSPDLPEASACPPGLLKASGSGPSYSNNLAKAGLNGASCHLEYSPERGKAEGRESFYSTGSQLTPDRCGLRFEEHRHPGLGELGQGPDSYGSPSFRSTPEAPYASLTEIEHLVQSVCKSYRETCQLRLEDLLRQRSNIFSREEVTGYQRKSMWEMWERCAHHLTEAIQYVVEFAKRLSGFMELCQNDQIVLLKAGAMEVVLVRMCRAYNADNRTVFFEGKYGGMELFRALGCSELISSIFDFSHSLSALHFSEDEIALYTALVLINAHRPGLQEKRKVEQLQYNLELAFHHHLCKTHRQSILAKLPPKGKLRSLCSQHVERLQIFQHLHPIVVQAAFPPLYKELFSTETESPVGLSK
# Procedure, shortened: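 Transactivation read-out: luminescence (Steady-Glo, 30 min at room temperature) from COS-7 cells carrying a RORγt expression plasmid plus a 4.3 kb IL-17 promoter luciferase reporter. Compound exposure was in serum-free DMEM with 0.3% DMSO final. Reported values are IC50 (μM) and Emax (%).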
# [2] = molecular target: T2, RORγt ligand-binding domain (RORγt-LBD) (Homo sapiens, UniProt P51449); assay: Time-resolved FRET (TR-FRET) RORγt coactivator assay; conditions: GST-RORγ-LBD, biotinylated RIP140 peptide, 2 hours at room temperature
# T2 construct: 20 nM recombinantly expressed RORγ-LBD fused to GST
# T2 sequence (P51449 269-508 limits assumed): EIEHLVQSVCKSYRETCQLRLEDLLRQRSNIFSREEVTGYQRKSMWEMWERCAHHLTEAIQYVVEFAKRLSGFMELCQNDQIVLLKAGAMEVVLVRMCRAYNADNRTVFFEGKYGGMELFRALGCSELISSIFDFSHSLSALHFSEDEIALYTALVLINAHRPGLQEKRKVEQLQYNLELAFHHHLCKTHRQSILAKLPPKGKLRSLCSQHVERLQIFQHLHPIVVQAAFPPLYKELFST
# Excerpt: Time-resolved FRET (TR-FRET) RORγt coactivator assay was used to identify RORγ modulator compounds with ligand-dependent coactivator displacement. The assay uses a d2-labeled anti-GST antibody, synthetic N-terminally biotinylated peptide which is derived from nuclear receptor coactivator protein RIP140, and a RORγt ligand-binding domain (RORγt-LBD) that is tagged with glutathione-S-transferase (GST). The influence of compounds on the RORγ-peptide interaction relies on the binding dependent energy transfer from a donor to an acceptor fluorophor attached to the binding partner of interest. […] For reduction of background from compound fluorescence, TR-FRET method makes use of generic fluorophore labels and time resolved detection.
# The assays were done in a final volume of 20 μl in a 384 well plate in a CHAPS buffer (2 mM CHAPS; 1 mM DTT, 2 mM EDTA; 0.1% BSA), containing 20 nM recombinantly expressed RORγ-LBD fused to GST, 30 nM N-terminally biotinylated peptide, 1 nM streptavidin-terbium conjugate and 20 nM d2 labeled-anti-GST. Test compounds were diluted using 10 mM stock solution. The range of the final compound concentrations used in this test was from 0.3 nM to 30 μM (logarithmic scale). DMSO content of the samples was kept at 1%. The assay was equilibrated for 2 hours in the dark at room temperature in 384 well plates (Falcon). The signal was detected by an Ultra384 reader (TECAN). […] Compounds that promote coactivator displacement induce a concentration-dependent decrease in time-resolved fluorescent signal. Data were collected and analyzed using GraphPad Prism software (GraphPad Software V5.02, San Diego Calif. USA). IC50 in μM and Emax in % were reported for each compound.
# [3] = test system: Murine EL-4 lymphoma cell line overexpressing human RORγt; assay: IL-17 secretion from EL4 murine lymphoma; assay type: cell-based; conditions: Mus musculus; human RORγt-transfected EL4 cells, PMA (10 ng/mL) and ionomycin (1 μM), 24 h; read-out: IC50, IL-17 secretion inhibition
# Procedure, shortened: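 EL-4 cells electroporated with hRORγt plasmid, seeded at 150000 cells/well and pretreated with compound for 24 h, then stimulated with PMA (10 ng/mL) plus ionomycin (1 μM final) with compound for a further 24 h at 37 °C. IL-17 in supernatant measured by HTRF or ELISA.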
SMILES,IC50 [1] [nM],IC50 [2] [nM],IC50 [3] [nM],melting point [°C]
"Cc1ccc(C(NC(=O)Cc2ccc3c(c2)/C(=C\C(C)C)C(=O)N3)c2ccc(C)o2)c(N2CCCCC2)c1 (stereo not shown) [Cpd. 48, N-{[4-methyl-2-(piperidin-1-yl)phenyl](5-methylfuran-2-yl)methyl}-2-[(3E)-3-(2-methylpropylidene)-2-oxo-2,3-dihydro-1H-indol-5-yl]acetamide]",100 to 1000,100 to 1000,–,91
"Cc1ccc(C(NC(=O)Cc2ccc3c(c2)C(=O)C(=O)N3)c2ccc(C)o2)c(N2CCCCC2)c1 (stereo not shown) [Cpd. 23, 2-(2,3-dioxo-2,3-dihydro-1H-indol-5-yl)-N-{[4-methyl-2-(piperidin-1-yl)phenyl](5-methylfuran-2-yl)methyl}acetamide]",100 to 1000,100 to 1000,100 to 1000,–
"Cc1ccc(C(NC(=O)Cc2ccc3c(ccn3CCC(=O)O)c2)c2ccc(C)o2)c(C)c1 (stereo not shown) [Cpd. 101, 3-[5-({[(2,4-dimethylphenyl)(5-methylfuran-2-yl)methyl]carbamoyl}methyl)-1H-indol-1-yl]propanoic acid]",100 to 1000,10 to 100,–,65
"Cc1ccc(C(NC(=O)Cc2ccc3[nH]c(=O)cc(C)c3c2)c2ccccc2)c(N2CCCCC2)c1 (stereo not shown) [Cpd. 11, N-{[4-methyl-2-(piperidin-1-yl)phenyl](phenyl)methyl}-2-(4-methyl-2-oxo-1,2-dihydroquinolin-6-yl)acetamide]",1000 to 10000,100 to 1000,1000 to 10000,–
"Cc1ccc(C(NC(=O)Cc2ccc3c(c2)OCC(=O)N3)c2ccccc2)c(N2CCCCC2)c1 (stereo not shown) [Cpd. 1, N-{[4-methyl-2-(piperidin-1-yl)phenyl](phenyl)methyl}-2-(3-oxo-3,4-dihydro-2H-1,4-benzoxazin-7-yl)acetamide]",100 to 1000,100 to 1000,100 to 1000,–
"O=C1COc2cc(CC(=O)NC(c3ccccc3)c3ccccc3N3CCCCC3)ccc2N1 (stereo not shown) [Cpd. 3, 2-(3-oxo-3,4-dihydro-2H-1,4-benzoxazin-7-yl)-N-{phenyl[2-(piperidin-1-yl)phenyl]methyl}acetamide]",1000 to 10000,100 to 1000,1000 to 10000,–
"O=C(Cc1ccc2c(c1)CS(=O)(=O)N2)NC(c1ccccc1)c1ccccc1N1CCCCC1 (stereo not shown) [Cpd. 26, 2-(2,2-dioxo-1,3-dihydro-2,1-benzothiazol-5-yl)-N-{phenyl[2-(piperidin-1-yl)phenyl]methyl}acetamide]",1000 to 10000,10 to 100,–,–
"COc1ccc(C(NC(=O)Cc2ccc3c(c2)OCC(=O)N3)c2ccc(C)o2)c(Br)c1 (stereo not shown) [Cpd. 34, N-[(2-bromo-4-methoxyphenyl)(5-methylfuran-2-yl)methyl]-2-(3-oxo-3,4-dihydro-2H-1,4-benzoxazin-7-yl)acetamide]",100 to 1000,100 to 1000,–,–
"CCc1ccc(C(NC(=O)Cc2ccc3c(c2)OCC(=O)N3)c2ccc(C)cc2C)o1 (stereo not shown) [Cpd. 32, N-[(2,4-dimethylphenyl)(5-ethylfuran-2-yl)methyl]-2-(3-oxo-3,4-dihydro-2H-1,4-benzoxazin-7-yl)acetamide]",100 to 1000,1000 to 10000,–,–
"Cc1ccc(C(NC(=O)Cc2ccc3c(ccn3CCC(=O)O)c2)c2ccc(C)o2)c(Br)c1 (stereo not shown) [Cpd. 102, 3-[5-({[(2-bromo-4-methylphenyl)(5-methylfuran-2-yl)methyl]carbamoyl}methyl)-1H-indol-1-yl]propanoic acid]",100 to 1000,10 to 100,–,70
"COc1ccc(C(NC(=O)Cc2ccc3c(c2)C(=O)C(=O)N3)c2ccccc2)c(N2CCCCC2)c1 (stereo not shown) [Cpd. 22, 2-(2,3-dioxo-2,3-dihydro-1H-indol-5-yl)-N-{[4-methoxy-2-(piperidin-1-yl)phenyl](phenyl)methyl}acetamide]",1000 to 10000,100 to 1000,–,–
"Cc1ccc(C(NC(=O)Cc2ccc3[nH]c(=O)cc(C)c3c2)c2ccccc2)c(C)c1 (stereo not shown) [Cpd. 9, N-[(2,4-dimethylphenyl)(phenyl)methyl]-2-(4-methyl-2-oxo-1,2-dihydroquinolin-6-yl)acetamide]",1000 to 10000,10 to 100,–,–

# Now from value to compound:
IC50 [1] [nM],IC50 [2] [nM],IC50 [3] [nM],melting point [°C],SMILES
10 to 100,< 10,100 to 1000,–,"Cc1ccc(C(NC(=O)Cc2ccc3c(c2)CCC3O)c2ccc(C)o2)c(N2CCCCC2)c1 (stereo not shown) [Cpd. 52, 2-(1-hydroxy-2,3-dihydro-1H-inden-5-yl)-N-{[4-methyl-2-(piperidin-1-yl)phenyl](5-methylfuran-2-yl)methyl}acetamide]"
10 to 100,< 10,100 to 1000,–,"Cc1ccc(C(NC(=O)Cc2ccc3[nH]c(C)nc3c2)c2ccc(C)o2)c(Br)c1 (stereo not shown) [Cpd. 77, N-[(2-bromo-4-methylphenyl)(5-methylfuran-2-yl)methyl]-2-(2-methyl-1H-1,3-benzodiazol-5-yl)acetamide]"
10 to 100,10 to 100,< 100,–,"Cc1ccc(C(NC(=O)Cc2ccc3[nH]cc(CCS(C)(=O)=O)c3c2)c2ccc(C)o2)c(N2CCCCC2)c1 (stereo not shown) [Cpd. 98, 2-[3-(2-methanesulfonylethyl)-1H-indol-5-yl]-N-{[4-methyl-2-(piperidin-1-yl)phenyl](5-methylfuran-2-yl)methyl}acetamide]"
10 to 100,100 to 1000,100 to 1000,–,"CSc1ccc2cc(CC(=O)NC(c3ccc(C)o3)c3ccc(C)cc3N3CCCCC3)ccc2c1 (stereo not shown) [Cpd. 91, N-{[4-methyl-2-(piperidin-1-yl)phenyl](5-methylfuran-2-yl)methyl}-2-[6-(methylsulfanyl)naphthalen-2-yl]acetamide]"
10 to 100,10 to 100,100 to 1000,–,"Cc1ccc(C(NC(=O)Cc2ccc3[nH]c(C)nc3c2)c2ccccc2)c(N2CCCC2)c1 (stereo not shown) [Cpd. 82, 2-(2-methyl-1H-1,3-benzodiazol-5-yl)-N-{[4-methyl-2-(pyrrolidin-1-yl)phenyl](phenyl)methyl}acetamide]"
10 to 100,< 10,< 100,–,"Cc1ccc(C(NC(=O)C2(c3ccc4c(c3)C(=O)C(=O)N4)CC2)c2ccc(C)o2)c(C)c1 (stereo not shown) [Cpd. 125, N-[(2,4-dimethylphenyl)(5-methylfuran-2-yl)methyl]-1-(2,3-dioxo-2,3-dihydro-1H-indol-5-yl)cyclopropane-1-carboxamide]"
10 to 100,< 10,< 100,–,"CC(=O)N1Cc2ccc(C3(C(=O)NC(c4ccc(C)o4)c4ccc(C)cc4C)CC3)cc2C1 (stereo not shown) [Cpd. 127, 1-(2-acetyl-2,3-dihydro-1H-isoindol-5-yl)-N-[(2,4-dimethylphenyl)(5-methylfuran-2-yl)methyl]cyclopropane-1-carboxamide]"
10 to 100,100 to 1000,< 100,–,"Cc1ccc(C(NC(=O)Cc2ccc3[nH]cc(C)c3c2)c2ccc(C)o2)c(N2CCCCC2)c1 (stereo not shown) [Cpd. 64, 2-(3-methyl-1H-indol-5-yl)-N-{[4-methyl-2-(piperidin-1-yl)phenyl](5-methylfuran-2-yl)methyl}acetamide]"
